# Results: the METLIN SMRT retention time set (Domingo-Almenara et al. 2019)
# Experiment: gradient 5% acetonitrile 3 min, to 50% in 2 min, to 85% in 15 min, held 3 min, 100 µL/min
# Settings: column: Zorbax Extend-C18 2.1 x 50 mm; eluents: water / acetonitrile, 0.1% formic acid
# Summary of the method: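 Retention times come from adduct peaks that were picked computationally and then checked by hand. The standards, pure and pooled in mixtures of ~100 molecules, were run on a Zorbax Extend-C18 column (2.1 × 50 mm, 1.8 μm) at 100 μL/min with water and acetonitrile, each with 0.1% formic acid. Detection was by quadrupole time-of-flight mass spectrometry in positive and negative ionization mode, with a dead volume of 40 μL and a dwell volume of 900 μL.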
compound,measurement,value
O=C1COc2cc(Cl)ccc2N1Cc1nc(-c2ccc(F)c(Br)c2)no1,RP-LC retention time,1210 s
Clc1ccccc1-c1nnc(-c2ccccc2Cl)o1,RP-LC retention time,1080 s
Cc1ccc(C(=O)N2CCc3nc(-c4ccc(Cl)cc4)ncc3C2)cc1F,RP-LC retention time,1150 s
Cc1ccc(C)c(-n2ccn(Cc3nc(-c4ccc(F)c(Cl)c4)no3)c(=O)c2=O)c1,RP-LC retention time,1010 s
Cn1nc(CN2CCCC2)c2c1CCN(S(=O)(=O)c1ccc(C(F)(F)F)cc1)C2,RP-LC retention time,679 s
CCOC(=O)c1ccc(NC(=O)C2CCC(=O)N2S(=O)(=O)c2ccc(C)c(C)c2)cc1 (centres undefined),RP-LC retention time,978 s
O=c1ccc(-c2ccc3c(c2)OCO3)nn1CCc1nc(-c2ccccc2Br)no1,RP-LC retention time,936 s
CC1CCCCN1S(=O)(=O)c1ccc2c(c1)CCC(=O)N2CC(=O)NC1CCCCC1 (centres undefined),RP-LC retention time,921 s
Cc1cc2n(n1)CCC(=O)N2CCCC(=O)NCCCN1CCCC(C)C1 (centres undefined),RP-LC retention time,570 s
CCc1nc2cc(N3CCC(C(=O)NCc4ccccc4F)CC3)cnc2nc1CC,RP-LC retention time,840 s
O=C(Nc1cccnc1)C1CCN(S(=O)(=O)c2cc(-c3noc(C4CCC4)n3)cs2)CC1,RP-LC retention time,762 s
COc1ccccc1N1CCN(c2cc(SCC(=O)Nc3ccc4c(c3)OCO4)ncn2)CC1,RP-LC retention time,900 s
O=C1Nc2cc(C(=O)N3CCN(Cc4ccccc4)CC3)ccc2N2CCCCC12 (centres undefined),RP-LC retention time,612 s
COc1cccc(S(=O)(=O)N2CCC(N3C[C@H](OC)[C@@H]3c3ccncc3)CC2)c1,RP-LC retention time,625 s
CCC(=O)N1CCc2cc(N3CC(C(=O)NC(C)c4ccccc4)CC3=O)ccc21 (centres undefined),RP-LC retention time,750 s
COCCN1C(=O)CN(Cc2ccc(C)cc2)C(=O)C1c1cccs1 (centres undefined),RP-LC retention time,849 s
COc1ccc(OC)c(Nc2c(-c3ccc(SC)cc3)nc3cnccn23)c1,RP-LC retention time,923 s
COc1ccc(C2(C(=O)N3C[C@@H](CO)[C@H](c4ccccn4)C3)CC2)cc1,RP-LC retention time,605 s
CCOc1ccc(NC(=O)N2CCCC(C)(C(=O)NCc3ccccc3)C2)cc1 (centres undefined),RP-LC retention time,859 s
Cc1ccc(Nc2c(-c3ccc(C)cc3)nc3ccc(Br)cn23)cc1,RP-LC retention time,849 s
CC(C)(C)c1ccc(S(=O)(=O)N2CCC3(CC2)NCCN=C3NCc2ccccc2)cc1,RP-LC retention time,854 s
CSc1ccccc1NC(=O)c1coc(NC(=O)c2ccco2)n1,RP-LC retention time,699 s
Cc1cc2c(cc(C(=O)NCCCc3ccccc3)n2Cc2ccc(Cl)cc2)o1,RP-LC retention time,1270 s
Cn1cc(C(CNC(=O)Nc2ccccc2F)c2cccnc2)c2ccccc21 (centres undefined),RP-LC retention time,682 s
CC(C)OCCCNc1nc(Nc2ccc3c(c2)OCO3)c2cnn(-c3ccccc3)c2n1,RP-LC retention time,1140 s
CNC(=O)C1CN(C(=O)Cc2c[nH]c3ccccc23)CC12CCCC2 (centres undefined),RP-LC retention time,596 s
O=C(c1ccco1)N1CCC(Cc2noc(C3CC3)n2)C1 (centres undefined),RP-LC retention time,709 s
COc1nn(C)cc1C(=O)NCc1n[nH]c(=O)c2ccccc12,RP-LC retention time,573 s
CCOC(=O)c1[nH]c(C)c(CCC(=O)Nc2cc(OC)cc(OC)c2)c1C,RP-LC retention time,880 s
CCc1noc(C2(NC(=O)/C=C/c3ccccc3)CCCCC2)n1,RP-LC retention time,961 s
C[C@@H]1c2ccccc2CCN1C(=O)c1ccccc1F,RP-LC retention time,919 s
CCOC(=O)c1sc(NC(=O)c2ccco2)nc1-c1ccccc1,RP-LC retention time,899 s
Cc1[nH]c(C(=O)N2CCCC(C(=O)NCCCN3CCCCCC3)C2)c(C)c1C(=O)OC(C)C (centres undefined),RP-LC retention time,650 s
CCOC(=O)c1c(S(=O)(=O)N2CCC(C(=O)NC3CCCCC3)CC2)c(C)n(C)c1C,RP-LC retention time,828 s
O=C(CSc1nccn1-c1cccc(Cl)c1)Nc1ccccc1C(F)(F)F,RP-LC retention time,591 s
O=C(Nc1ccc(F)c(F)c1)C1CCN(c2nccnc2Sc2ccccc2)CC1,RP-LC retention time,1110 s
O=C(Nc1ccc2c(c1)CCCN2C(=O)C1CC1)c1cc(Br)ccc1Cl,RP-LC retention time,879 s
CCOC(=O)c1ccc(NC(=O)N(Cc2cccs2)C2CCN(CC)CC2)cc1,RP-LC retention time,670 s
COc1ccc(C(=O)N2CCC(c3cc(N)on3)CC2)cc1F,RP-LC retention time,659 s
COCc1nc(CCNS(=O)(=O)c2ccc(F)cc2)no1,RP-LC retention time,731 s
COc1ccc(Cl)cc1NC(=O)COc1nc(C)nc2ccccc12,RP-LC retention time,840 s
Cn1cc(C(=O)NCc2cccc(Cl)c2)c(S(=O)(=O)N2CCSCC2)n1,RP-LC retention time,892 s
Cc1cccc(N2CCN(C(=O)C3CCc4sc(C(=O)N(C)C)cc4C3)CC2)c1 (centres undefined),RP-LC retention time,867 s
CCOc1ccc(NC(=O)C2CCCN(c3nnc4ccccn34)C2)cc1 (centres undefined),RP-LC retention time,674 s
COc1ccc(CNC(=O)COc2nc(C)nc3ccccc23)cc1,RP-LC retention time,678 s
COc1ccc(OCc2noc(CNC(=O)c3cc(-c4ccco4)on3)n2)cc1,RP-LC retention time,832 s
C[C@H]1CN(S(=O)(=O)c2ccccc2F)C[C@@H]1c1nc(-c2ccncc2)no1,RP-LC retention time,884 s
O=c1c2nnc3ccnn3c2ccn1CCc1c[nH]c2ccc(F)cc12,RP-LC retention time,709 s
Cc1ccccc1CNC(=O)C1c2ccccc2CC(=O)N1C(C)C (centres undefined),RP-LC retention time,827 s
O=C1CCCN1CCCN(CC(=O)N1CCNCC1)C(=O)c1ccc(Cl)cc1,RP-LC retention time,586 s
Cc1cc(C)c(S(=O)(=O)NCc2c(-c3ccccc3)nc3sc(C)nn23)c(C)c1,RP-LC retention time,1020 s
COc1ccc(C(=O)N2CCCC2c2cc(C)on2)cc1OC (centres undefined),RP-LC retention time,655 s
CCN(CC)S(=O)(=O)c1cccc(-c2nnc(-c3ccc(OC)cc3)o2)c1,RP-LC retention time,1020 s
CCCn1nnc2cc(-c3noc(C4CC(=O)N(c5cccc(Cl)c5)C4)n3)ccc21 (centres undefined),RP-LC retention time,994 s
COCCN1CC2(CCN(S(=O)(=O)c3ccccc3Cl)CC2)C1c1ccccc1 (centres undefined),RP-LC retention time,719 s
CN(Cc1ccoc1)C(=O)Nc1ccc(F)cc1,RP-LC retention time,797 s
CSc1ncc(C(=O)NC2CC2)c(N)n1,RP-LC retention time,543 s
Fc1ccc(-c2noc(Cc3nnc(-c4cccc(Cl)c4)o3)n2)cc1,RP-LC retention time,1070 s
COc1ccccc1-c1nc(-c2cn(-c3cccc(Cl)c3)nn2)no1,RP-LC retention time,1050 s
O=C(CCN1C(=O)c2cccnc2Sc2ccccc21)NCCc1c[nH]c2ccccc12,RP-LC retention time,746 s
COc1ccc2c(CCNC(=O)c3ccc(C(C)(C)C)cc3)c[nH]c2c1,RP-LC retention time,982 s
COc1ccc(Br)cc1S(=O)(=O)Nc1cc(-c2cn3ccccc3n2)ccc1C,RP-LC retention time,701 s
COc1ccc(-c2ccc(S(=O)(=O)NCc3ccc(C(=O)O)cc3)cc2)cc1,RP-LC retention time,801 s
CCc1ccc(CNC(=O)CN2C(=O)C3CCCCN3c3ccc(S(=O)(=O)N(C)C)cc32)cc1 (centres undefined),RP-LC retention time,975 s
Cc1cc(Cl)ccc1S(=O)(=O)N1CCC(F)(c2nc(CC(C)C)no2)CC1,RP-LC retention time,1260 s
CCOc1ccc(CNC(=O)c2cc(S(=O)(=O)N3CCCCC3)c(C)n2C)cc1,RP-LC retention time,1020 s
CCOC(=O)c1ccc(NC(=O)C2CCCN(c3ncnc4c3nc3n4CCCCC3)C2)cc1 (centres undefined),RP-LC retention time,873 s
O=C(NCCOc1ccc2nnc(-c3cccc(F)c3)n2n1)c1cc(=O)c2ccccc2o1,RP-LC retention time,682 s
COCCOC1CN(C2CCN(Cc3cccc(C)c3)CC2)C12CCCCC2 (centres undefined),RP-LC retention time,573 s
O=S(=O)(c1ccccc1)c1nnn2c1nc(NCc1ccc(F)cc1)c1sccc12,RP-LC retention time,837 s
CCOC(=O)N1CCN(Cc2nc(-c3ccc(N4CCCC4)nc3)no2)CC1,RP-LC retention time,604 s
CN1C(=O)C2CCCCN2c2ccc(C(=O)NCCCN3CCCCCC3)cc21 (centres undefined),RP-LC retention time,627 s
CCNS(=O)(=O)c1cccnc1Nc1cccc(Cl)c1,RP-LC retention time,1030 s
Cc1ccccc1NS(=O)(=O)c1cc(-c2[nH]ncc2C(=O)N2CCCC2)oc1C,RP-LC retention time,700 s
CC(=O)N1CCc2cc(N3CC(C(=O)NCc4ccco4)CC3=O)ccc21 (centres undefined),RP-LC retention time,640 s
COc1ccc(CNC(=O)N2c3ccccc3CC2c2nc(C3CC3)no2)cc1 (centres undefined),RP-LC retention time,1180 s
CC(C)CCC(=O)N1CCC(N2C[C@H](O)C[C@H]2C(N)=O)CC1,RP-LC retention time,571 s
O=C1CCN(C(=O)C2CCN(C(=O)c3ccco3)CC2)CCCCCCN1,RP-LC retention time,623 s
COc1ccc(Nc2nc(-c3nnn(-c4cc(Cl)c(OC)cc4OC)c3C)ns2)cc1,RP-LC retention time,1020 s
COc1ccc(-c2noc(C3CCCN3C(=O)Nc3ccc(OC)cc3OC)n2)cc1 (centres undefined),RP-LC retention time,952 s
C=CCNC(=O)c1cnn(-c2cc(-c3nc(C(C)(C)C)no3)ccn2)c1C,RP-LC retention time,1020 s
CC(C)CCN1CCC(N2CCN(C(=O)C3CCCC3)CC2)C1=O (centres undefined),RP-LC retention time,585 s
Cn1c(CCNC(=O)c2cccc(C(F)(F)F)c2)nc2cccnc21,RP-LC retention time,664 s
Cc1ccccc1-c1nc2cnccn2c1NCCC(=O)NCc1ccco1,RP-LC retention time,624 s
O=C(Nc1nsc(-c2ccccc2)n1)c1cccs1,RP-LC retention time,743 s
CCOc1ccc(-c2ccc(=O)n(CCc3nc(-c4ccc(F)cc4)no3)n2)cc1,RP-LC retention time,815 s
COc1cccc(CCNC(=O)C2CCCN(c3ncnc4c3nc3n4CCCCC3)C2)c1OC (centres undefined),RP-LC retention time,758 s
O=C(Cn1cnc2nc(N3CCC(C(=O)NC4CC4)CC3)sc2c1=O)Nc1cccc(Cl)c1,RP-LC retention time,679 s
CCN(C(=O)c1ccco1)c1nc(-c2ccccc2)cs1,RP-LC retention time,1180 s
